Broadly, the IC50 is the concentration needed to halve the response being measured. For orientation: EC50 means the concentration needed to bring the measured effect to its halfway point.

Data on 35 compounds can be found in patent US20230331718A1, “COMPOSITIONS FOR MODULATING SPLICING” (Skyhawk Therapeutics, Inc., priority 2020, published 2023).

The test system of assay [1] is SMN2 Splicing D7 (SMN Δ7 transcript). Put plainly: SMN Quantitative Splicing Assay (qPCR). It counts as cell-based, human. The following applies: SMA patient fibroblasts (GM03813), 24 h, 2.5 µM to 0.6 nM. The protocol: Spinal muscular atrophy (SMA) patient fibroblasts (GM03813, Coriell) were plated in 96-well plates at 50,000 cells/well. […] Treated cells were lysed and cDNA synthesized using the Fast Advanced Cells-to-Ct kit (Thermofisher A35378) according to the manufacturer’s instructions. 2 µL of each cDNA were used in qPCR reactions. […] Reactions were run in a Quant Studio 6 qPCR instrument with default settings.
On the technique in general: Real-time PCR tracks product formation cycle by cycle.

The next assay concerns SMN2 Protein. Put plainly: SMN Protein Assay (MSD). It counts as cell-based, human. To be noted: SMA patient fibroblasts, 48 hours, 0.6 nM to 2.5 µM. How it is done:
Spinal muscular atrophy (SMA) patient fibroblasts were plated in 96-well plates at 7,000 cells/well. Compounds were added in concentrations ranging from 0.6 nM to 2.5 µM, incubated for 48 hours and the cells were lysed with 100 µL of lysis buffer. 20 µL of lysate was used for SMN protein measurement by Mesoscale Discovery (MSD) assay developed by PharmOptima (Michigan). A standard curve prepared with SMN protein ranging from 1 µg/ml to 19.5pg/ml was used in each MSD plate to calculate the absolute SMN protein amount in each sample.

`CN(c1cnc(-c2cc3nccnc3cc2O)nn1)[C@@H]1CC2CC[C@H](N2)[C@@H]1F` [Compound 57]: the IC50 in assay [1] lay within 101 to 500 nM. The compound also returned an EC50 in the assay with SMN2 Protein of 16 to 50 nM.

Regarding `CN(c1cnc(-c2cc3cnn(C)c(=O)c3cc2O)nn1)C1CC2COCC(C1)N2` (stereo not shown) [Compound 149], the half-inhibitory concentration (IC50) in assay [1] (Homo sapiens, Fibroblast) lay within 0.01 to 15 nM. Further, the EC50 in the assay with SMN2 Protein was 51 to 100 nM.

Compound `CN(c1cnc(-c2cc3ccn(C)c(=O)c3cc2O)nn1)[C@@H]1CC2CC[C@](C)(N2)[C@@H]1F` [Compound 172] returned a half-inhibitory concentration (IC50) in assay [1] (Homo sapiens, Fibroblast) of 0.01 to 15 nM. Also, the EC50 with SMN2 Protein lay in the range of 0.01 to 15 nM.

The compound `Cc1cnc2cc(-c3ncc(N(C)[C@H]4CC5CCCC(N5)[C@H]4F)nn3)c(O)cc2n1` (stereo partly shown) [Compound 106] registered an IC50 in assay [1] (Homo sapiens, Fibroblast) of 16 to 50 nM. This compound gave an EC50 in the assay on SMN2 Protein of 0.01 to 15 nM.

In turn, `CCC1C[C@@H](N(C)c2cnc(-c3cc4oc(C(F)(F)F)c(C)c(=O)c4cc3O)nn2)[C@@H](F)[C@H](C)N1` (stereo partly shown) [Compound 79] displayed an IC50 in assay [1] (Homo sapiens, Fibroblast) of 101 to 500 nM. Moreover, the EC50 in the assay with SMN2 Protein was 16 to 50 nM.

As for `CCn1cnc2cc(-c3ncc(N(C)[C@H]4CC5CCC[C@@H](N5)[C@H]4F)nn3)c(O)cc2c1=O` [Compound 125], the half-maximal inhibitory concentration (IC50) in assay [1] (Homo sapiens, Fibroblast) lay within 0.01 to 15 nM. Also, in the assay with SMN2 Protein, the EC50 was in the range of 16 to 50 nM.

`CN(c1cnc(-c2cc3c(=O)n(C)ccc3cc2O)nn1)[C@H]1CC2CC[C@@H](N2)[C@H]1F` [Compound 82] returned a 50% inhibitory concentration (IC50) in assay [1] (Homo sapiens, Fibroblast) of 0.01 to 15 nM. Also, the EC50 in the assay on SMN2 Protein is 0.01 to 15 nM.

`Cc1cc(=O)c2cc(-c3ncc(N(C)[C@@H]4CC5CCCC(N5)[C@@H]4F)nn3)c(O)cc2o1` (stereo partly shown) [Compound 111] gave an IC50 in assay [1] (Homo sapiens, Fibroblast) of 101 to 500 nM. The half-maximal effective concentration (EC50) in the assay with SMN2 Protein lay within 51 to 100 nM.

`CN(c1cnc(-c2cc3occc(=O)c3cc2O)nn1)[C@@H]1CC2COC[C@H](N2)[C@@H]1F` [Compound 67] came in with an IC50 in assay [1] (Homo sapiens, Fibroblast) of 101 to 500 nM. Also, the EC50 in the assay on SMN2 Protein was 51 to 100 nM.

The compound `CCn1cnc2cc(-c3ncc(N(C)C4CC5CCC(N5)[C@H]4F)nn3)c(O)cc2c1=O` (stereo partly shown) [Compound 32] registered an IC50 in assay [1] (Homo sapiens, Fibroblast) of 0.01 to 15 nM. In addition, the EC50 in the assay with SMN2 Protein is 0.01 to 15 nM.

Consider `CCn1c(C)c(F)c2cc(-c3ncc(N(C)[C@H]4C[C@@H]5CCC(N5)[C@H]4F)nn3)c(O)cc2c1=O` [Compound 223], for which the IC50 in assay [1] (Homo sapiens, Fibroblast) fell in the range of 0.01 to 15 nM. The compound also returned a concentration giving a half-maximal response (EC50) in the assay on SMN2 Protein of 0.01 to 15 nM.

In the case of `CN(c1cnc(-c2cc3cncnc3cc2O)nn1)C1CC2CCC(N2)[C@H]1F` (stereo partly shown) [Compound 26], in assay [1] (Homo sapiens, Fibroblast), the 50% inhibitory concentration (IC50) is 51 to 100 nM. Besides, the EC50 in the assay on SMN2 Protein was 16 to 50 nM.

`[2H]C([2H])([2H])n1cnc2cc(-c3ncc(N(C)[C@@H]4CC5CC[C@H](N5)[C@@H]4F)nn3)c(O)cc2c1=O` [Compound 178]: the half-maximal inhibitory concentration (IC50) in assay [1] (Homo sapiens, Fibroblast) fell in the range of 0.01 to 15 nM. In addition, the concentration giving a half-maximal response (EC50) in the assay on SMN2 Protein was 0.01 to 15 nM.

`Cc1ncc2cc(O)c(-c3ncc(N(C)[C@H]4CC5CCC(N5)[C@H]4F)nn3)cc2n1` (stereo partly shown) [Compound 40] had a half-inhibitory concentration (IC50) in assay [1] (Homo sapiens, Fibroblast) of 16 to 50 nM. In the assay on SMN2 Protein, this compound showed a half-maximal effective concentration (EC50) of 0.01 to 15 nM.

As for `CCn1ccc2cc(-c3ncc(N(C)C4CC5CCC(N5)[C@@H]4F)nn3)c(O)cc2c1=O` (stereo partly shown) [Compound 33], the IC50 in assay [1] (Homo sapiens, Fibroblast) was in the range of 101 to 500 nM. The EC50 in the assay on SMN2 Protein was in the range of 16 to 50 nM.

`Cc1nc2cc(O)c(-c3ncc(N(C)[C@@H]4C[C@@]5(C)CC[C@](C)(N5)[C@@H]4F)nn3)cc2nc1C` [Compound 88] showed a 50% inhibitory concentration (IC50) in assay [1] (Homo sapiens, Fibroblast) of 16 to 50 nM. In the assay on SMN2 Protein, this compound gave an EC50 of 51 to 100 nM.

Regarding `CN(c1cnc(-c2cc3occ(C(F)(F)F)c(=O)c3cc2O)nn1)[C@H]1C[C@@H]2CC[C@@H](N2)[C@H]1F` [Compound 90], in assay [1] (Homo sapiens, Fibroblast), the IC50 was in the range of 16 to 50 nM. In addition, in the assay with SMN2 Protein, the half-maximal effective concentration (EC50) was in the range of 16 to 50 nM.

For `CN(c1cnc(-c2cc3c(=O)n(C)cnc3cc2O)nn1)C1CC2CCC(N2)[C@H]1F` (stereo partly shown) [Compound 139], the IC50 in assay [1] (Homo sapiens, Fibroblast) is 16 to 50 nM. Moreover, the EC50 with SMN2 Protein lay in the range of 0.01 to 15 nM.

Compound `[2H]C([2H])([2H])N(c1cnc(-c2cc3c(F)cn(CC)c(=O)c3cc2O)nn1)[C@H]1C[C@@H]2CC[C@@H](N2)[C@H]1F` [Compound 201] came in with an IC50 in assay [1] (Homo sapiens, Fibroblast) of 0.01 to 15 nM. This compound yielded an EC50 with SMN2 Protein of 0.01 to 15 nM.

With `[2H]C([2H])([2H])n1ccc2cc(-c3ncc(N(C)[C@@H]4CC5CCC(N5)[C@@H]4F)nn3)c(O)cc2c1=O` (stereo partly shown) [Compound 158], in assay [1] (Homo sapiens, Fibroblast), the 50% inhibitory concentration (IC50) is 0.01 to 15 nM. Also, the EC50 with SMN2 Protein lay in the range of 0.01 to 15 nM.

In assay [1] (Homo sapiens, Fibroblast), `[2H]C([2H])([2H])n1cnc2cc(-c3ncc(N(C)[C@H]4C[C@@H]5CCC(N5)[C@H]4F)nn3)c(O)cc2c1=O` [Compound 177] displayed an IC50 of 0.01 to 15 nM. Further, the EC50 in the assay on SMN2 Protein lay within 0.01 to 15 nM.

For `CN(c1cnc(-c2cc3c(F)cn(C)c(=O)c3cc2O)nn1)C1CC2CCCC(N2)[C@H]1F` (stereo partly shown) [Compound 137], in assay [1] (Homo sapiens, Fibroblast), the half-inhibitory concentration (IC50) lay in the range of 0.01 to 15 nM. Moreover, the EC50 in the assay with SMN2 Protein lay in the range of 0.01 to 15 nM.

For the compound `CN(c1cnc(-c2cc3c(F)cn(C)c(=O)c3cc2O)nn1)[C@@H]1CC2CC[C@H](N2)[C@@H]1F` [Compound 65], in assay [1] (Homo sapiens, Fibroblast), the IC50 was in the range of 16 to 50 nM. Further, the 50% effective concentration (EC50) with SMN2 Protein was in the range of 0.01 to 15 nM.

On to `CN(c1cnc(-c2cc3occ(C(F)(F)F)c(=O)c3cc2O)nn1)[C@@H]1C[C@H]2CC[C@H](N2)[C@@H]1F` [Compound 89], for which the IC50 in assay [1] (Homo sapiens, Fibroblast) fell in the range of 101 to 500 nM. In addition, the half-maximal effective concentration (EC50) with SMN2 Protein was in the range of 51 to 100 nM.

The compound `CN(c1cnc(-c2cc3ccn(C(F)F)c(=O)c3cc2O)nn1)[C@@H]1CC2CCC(N2)[C@@H]1F` (stereo partly shown) [Compound 156] had a half-maximal inhibitory concentration (IC50) in assay [1] (Homo sapiens, Fibroblast) of 16 to 50 nM. The compound further came in with an EC50 with SMN2 Protein of 0.01 to 15 nM.

In turn, `Cc1cc(=O)c2cc(-c3ncc(N(C)[C@@H]4C[C@H]5CC[C@H](N5)[C@@H]4F)nn3)c(O)cc2o1` (single isomer, unassigned) [Compound 1A] yielded an IC50 in assay [1] (Homo sapiens, Fibroblast) of 16 to 50 nM. Also, the EC50 with SMN2 Protein is 16 to 50 nM.

`CN(c1cnc(-c2cc3ccn(C)c(=O)c3cc2O)nn1)[C@H]1CC2CCC(N2)[C@H]1F` (single isomer, unassigned) [Compound 4B] yielded an IC50 in assay [1] (Homo sapiens, Fibroblast) of 0.01 to 15 nM. In the assay with SMN2 Protein, this compound returned a 50% effective concentration (EC50) of 0.01 to 15 nM.

For the compound `CN(c1cnc(-c2cc3c(=O)n(C)ccc3cc2O)nn1)[C@@H]1CC2CC[C@H](N2)[C@@H]1F` [Compound 81], in assay [1] (Homo sapiens, Fibroblast), the IC50 lay in the range of 51 to 100 nM. Also, the 50% effective concentration (EC50) with SMN2 Protein lay within 16 to 50 nM.

In assay [1] (Homo sapiens, Fibroblast), `Cc1cc(=O)c2cc(-c3ncc(N(C)[C@H]4C[C@@H]5CC[C@@H](N5)[C@H]4F)nn3)c(O)cc2o1` (single isomer, unassigned) [Compound 1B] displayed a half-maximal inhibitory concentration (IC50) of 16 to 50 nM. The 50% effective concentration (EC50) in the assay on SMN2 Protein is 0.01 to 15 nM.

Take `CCc1cc(=O)c2cc(-c3ncc(N(C)[C@@H]4C[C@H]5CCC(N5)[C@@H]4F)nn3)c(O)cc2o1` [Compound 117]: the half-maximal inhibitory concentration (IC50) in assay [1] (Homo sapiens, Fibroblast) fell in the range of 51 to 100 nM. The compound also gave a 50% effective concentration (EC50) with SMN2 Protein of 16 to 50 nM.

On to `CCn1ccc2cc(-c3ncc(N(C)[C@H]4C[C@@H]5CCCC(N5)[C@H]4F)nn3)c(O)cc2c1=O` [Compound 121], for which the IC50 in assay [1] (Homo sapiens, Fibroblast) was 0.01 to 15 nM. This compound also displayed an EC50 with SMN2 Protein of 0.01 to 15 nM.

In turn, `Cc1ncc2cc(-c3ncc(N(C)[C@H]4C[C@@H]5CCC(N5)[C@H]4F)nn3)c(O)cc2n1` [Compound 72] gave an IC50 in assay [1] (Homo sapiens, Fibroblast) of 51 to 100 nM. The compound further yielded a concentration for a half-maximal effect (EC50) in the assay with SMN2 Protein of 51 to 100 nM.

As to `CCn1cc(F)c2cc(-c3ncc(N(C)[C@H]4C[C@@H]5CCC(N5)[C@H]4F)nn3)c(O)cc2c1=O` [Compound 163, 2-Ethyl-4-fluoro-6-(6-{[(2R,3S,5S)-2-fluoro-8-azabicyclo[3.2.1]octan-3-yl](methyl)amino}-1,2,4-triazin-3-yl)-7-hydroayisoquinolin-1-one], in assay [1] (Homo sapiens, Fibroblast), the half-maximal inhibitory concentration (IC50) was 0.01 to 15 nM. This compound also returned an EC50 with SMN2 Protein of 0.01 to 15 nM.

`Cc1cnc2cc(O)c(-c3ncc(N(C)[C@H]4C[C@@H]5CCC(N5)[C@H]4F)nn3)cc2n1` [Compound 52] came in with an IC50 in assay [1] (Homo sapiens, Fibroblast) of 16 to 50 nM. In the assay on SMN2 Protein, this compound yielded a half-maximal effective concentration (EC50) of 0.01 to 15 nM.

`Cc1cc2cc(O)c(-c3ncc(N(C)[C@@H]4CC5CCC[C@H](N5)[C@@H]4F)nn3)cc2cn1` [Compound 77]: in assay [1] (Homo sapiens, Fibroblast), the half-maximal inhibitory concentration (IC50) is 16 to 50 nM. Further, the concentration giving a half-maximal response (EC50) in the assay with SMN2 Protein fell in the range of 16 to 50 nM.
